From ChEMBL document CHEMBL1201862, “PubChem BioAssay data set” (2004)
Calls of active or inactive are those of the source.

Experiments:
Leucine aminopeptidase = molecular target: T1, Leucine aminopeptidase (Plasmodium falciparum 3D7, UniProt Q8IL11); test: P. falciparum M17LAP inhibitors, primary screen, biochemical, fluorogenic H-Leu-NHMec substrate, 1536-well (AID 1619); assay type: functional
T1 sequence (Q8IL11 whole entry): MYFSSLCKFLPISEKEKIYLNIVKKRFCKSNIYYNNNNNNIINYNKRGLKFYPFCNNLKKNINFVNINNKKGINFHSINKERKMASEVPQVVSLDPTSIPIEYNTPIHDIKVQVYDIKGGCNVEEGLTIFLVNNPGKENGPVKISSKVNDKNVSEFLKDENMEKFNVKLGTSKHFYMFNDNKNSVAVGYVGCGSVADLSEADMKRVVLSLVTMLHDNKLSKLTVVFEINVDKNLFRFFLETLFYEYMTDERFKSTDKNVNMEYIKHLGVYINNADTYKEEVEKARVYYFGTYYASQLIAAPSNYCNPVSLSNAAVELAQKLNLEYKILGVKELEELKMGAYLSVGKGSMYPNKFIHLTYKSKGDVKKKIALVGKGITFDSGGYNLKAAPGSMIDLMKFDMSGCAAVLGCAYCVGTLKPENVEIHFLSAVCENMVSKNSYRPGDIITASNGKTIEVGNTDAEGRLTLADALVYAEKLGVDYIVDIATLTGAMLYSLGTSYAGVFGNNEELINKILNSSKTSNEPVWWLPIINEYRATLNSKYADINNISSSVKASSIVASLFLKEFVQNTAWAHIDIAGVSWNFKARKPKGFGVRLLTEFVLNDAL

[1] = molecular target: T2, Short transient receptor potential channel 4 (Mus musculus, UniProt Q9QUQ5); test: mouse TRPC4 channel inhibitors, dose response, cell-based, HEK293 TRPC4/mu-opioid, Fluo-4 calcium (AID 434942); assay type: functional;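 further: potency of inhibitors blocking the TRPC4 calcium response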
T2 sequence (Q9QUQ5 whole entry): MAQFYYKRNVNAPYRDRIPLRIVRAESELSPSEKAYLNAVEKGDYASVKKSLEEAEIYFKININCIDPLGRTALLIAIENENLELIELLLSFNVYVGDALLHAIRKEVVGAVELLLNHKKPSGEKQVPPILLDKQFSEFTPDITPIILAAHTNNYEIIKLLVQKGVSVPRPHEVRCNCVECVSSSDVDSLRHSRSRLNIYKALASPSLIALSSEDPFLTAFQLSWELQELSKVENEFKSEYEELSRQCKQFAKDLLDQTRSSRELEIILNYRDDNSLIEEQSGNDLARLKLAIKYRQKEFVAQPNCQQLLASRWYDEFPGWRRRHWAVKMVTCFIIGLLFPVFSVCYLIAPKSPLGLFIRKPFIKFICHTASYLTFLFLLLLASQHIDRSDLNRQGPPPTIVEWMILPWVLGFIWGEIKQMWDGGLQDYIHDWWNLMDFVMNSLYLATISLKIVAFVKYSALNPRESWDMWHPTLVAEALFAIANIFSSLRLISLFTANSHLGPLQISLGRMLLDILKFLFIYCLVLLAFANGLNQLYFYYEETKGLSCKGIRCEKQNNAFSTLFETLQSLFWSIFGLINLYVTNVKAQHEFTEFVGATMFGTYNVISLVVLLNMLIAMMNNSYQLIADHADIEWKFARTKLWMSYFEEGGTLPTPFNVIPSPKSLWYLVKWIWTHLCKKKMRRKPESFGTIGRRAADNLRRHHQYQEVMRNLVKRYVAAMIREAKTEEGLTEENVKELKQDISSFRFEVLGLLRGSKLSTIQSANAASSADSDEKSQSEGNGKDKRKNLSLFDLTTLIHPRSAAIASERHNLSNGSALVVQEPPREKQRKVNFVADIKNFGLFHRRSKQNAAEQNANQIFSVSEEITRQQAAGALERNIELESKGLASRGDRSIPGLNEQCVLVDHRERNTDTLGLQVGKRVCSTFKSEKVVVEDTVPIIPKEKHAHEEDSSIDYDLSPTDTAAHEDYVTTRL

[2] = A cytotoxicity screen of small molecule inhibitors of the PhoP region in Salmonella typhi identified in the primary screen. [Related pubchem assays: 1850, 1864, 1985 ]; assay type: functional
[3] = HEp-2 cell cytotoxicity, dose response, cytotoxicity control for RSV inhibitor project, HTS (AID 2410); assay type: functional; settings: human respiratory syncytial virus
[4] = molecular target: T3, Sentrin-specific protease 6 (Homo sapiens, UniProt Q9GZR1); assay type: functional;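 further: Luminescence-based dose-response confirmatory assay of SENP6 inhibition, following up an ultra-high-throughput screen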
T3 sequence (Q9GZR1 whole entry): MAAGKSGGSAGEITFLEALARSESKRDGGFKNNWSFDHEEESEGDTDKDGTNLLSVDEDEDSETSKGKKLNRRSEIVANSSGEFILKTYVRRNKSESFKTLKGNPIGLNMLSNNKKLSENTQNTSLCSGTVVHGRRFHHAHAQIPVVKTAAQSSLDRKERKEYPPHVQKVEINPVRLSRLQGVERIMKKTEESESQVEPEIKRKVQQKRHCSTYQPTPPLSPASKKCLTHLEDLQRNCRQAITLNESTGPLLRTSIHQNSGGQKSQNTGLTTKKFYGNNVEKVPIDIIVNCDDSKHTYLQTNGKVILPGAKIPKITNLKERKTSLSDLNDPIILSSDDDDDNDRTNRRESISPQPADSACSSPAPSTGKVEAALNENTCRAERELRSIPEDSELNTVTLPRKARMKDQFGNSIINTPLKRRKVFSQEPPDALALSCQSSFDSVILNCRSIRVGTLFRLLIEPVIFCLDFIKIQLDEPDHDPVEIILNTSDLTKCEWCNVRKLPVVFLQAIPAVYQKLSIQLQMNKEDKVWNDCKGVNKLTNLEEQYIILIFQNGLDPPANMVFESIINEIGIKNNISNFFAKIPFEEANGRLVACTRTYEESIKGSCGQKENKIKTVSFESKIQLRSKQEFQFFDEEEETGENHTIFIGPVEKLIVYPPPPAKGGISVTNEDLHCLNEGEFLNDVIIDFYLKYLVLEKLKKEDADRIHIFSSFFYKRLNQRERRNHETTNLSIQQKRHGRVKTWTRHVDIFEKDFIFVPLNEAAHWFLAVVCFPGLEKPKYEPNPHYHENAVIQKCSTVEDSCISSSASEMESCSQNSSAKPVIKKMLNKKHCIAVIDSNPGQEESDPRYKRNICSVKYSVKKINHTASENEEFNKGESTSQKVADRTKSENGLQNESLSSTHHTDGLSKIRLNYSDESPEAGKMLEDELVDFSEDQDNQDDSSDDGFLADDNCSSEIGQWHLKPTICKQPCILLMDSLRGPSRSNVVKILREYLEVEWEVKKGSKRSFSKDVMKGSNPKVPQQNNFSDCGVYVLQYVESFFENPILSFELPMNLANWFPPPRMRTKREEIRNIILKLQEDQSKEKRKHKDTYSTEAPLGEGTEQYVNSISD

[5] = molecular target: T4, Sentrin-specific protease 7 (Homo sapiens, UniProt Q9BQF6); assay type: functional;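 further: Luminescence-based dose-response confirmation of ultra-high-throughput screening hits, measuring inhibition of SENP7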
T4 sequence (Q9BQF6 whole entry): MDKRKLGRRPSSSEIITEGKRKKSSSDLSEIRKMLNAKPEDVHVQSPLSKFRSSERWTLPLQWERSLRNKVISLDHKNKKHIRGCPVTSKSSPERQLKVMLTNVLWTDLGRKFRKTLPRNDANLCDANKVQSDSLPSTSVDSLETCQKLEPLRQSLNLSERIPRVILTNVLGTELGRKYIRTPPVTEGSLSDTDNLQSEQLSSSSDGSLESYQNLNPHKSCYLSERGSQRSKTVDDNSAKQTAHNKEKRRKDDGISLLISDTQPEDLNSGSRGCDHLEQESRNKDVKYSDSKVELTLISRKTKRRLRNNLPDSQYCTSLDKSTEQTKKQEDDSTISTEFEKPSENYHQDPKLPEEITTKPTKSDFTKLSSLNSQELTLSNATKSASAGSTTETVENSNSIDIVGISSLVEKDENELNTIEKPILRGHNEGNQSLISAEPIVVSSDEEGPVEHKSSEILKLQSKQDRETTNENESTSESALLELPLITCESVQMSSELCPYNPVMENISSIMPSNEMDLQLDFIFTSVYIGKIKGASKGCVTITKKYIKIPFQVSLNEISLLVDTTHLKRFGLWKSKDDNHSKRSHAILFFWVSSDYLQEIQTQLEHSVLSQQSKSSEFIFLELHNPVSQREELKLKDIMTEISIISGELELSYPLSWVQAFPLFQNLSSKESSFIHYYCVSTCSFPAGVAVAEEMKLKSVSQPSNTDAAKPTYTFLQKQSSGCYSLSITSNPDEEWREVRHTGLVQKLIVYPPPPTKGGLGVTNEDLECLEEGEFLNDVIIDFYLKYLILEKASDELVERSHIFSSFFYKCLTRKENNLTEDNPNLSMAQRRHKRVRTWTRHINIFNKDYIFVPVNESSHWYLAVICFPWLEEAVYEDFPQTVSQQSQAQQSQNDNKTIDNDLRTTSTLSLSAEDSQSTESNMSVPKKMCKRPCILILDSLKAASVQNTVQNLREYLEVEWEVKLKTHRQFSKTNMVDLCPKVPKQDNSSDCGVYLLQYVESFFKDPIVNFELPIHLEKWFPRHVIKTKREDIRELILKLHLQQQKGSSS

[6] = molecular target: T5, Sentrin-specific protease 8 (Homo sapiens, UniProt Q96LD8); assay type: functional;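 further: luminescence read-out of SENP8 inhibition, dose-response confirmation following an ultra-high-throughput screen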
T5 sequence (Q96LD8 whole entry): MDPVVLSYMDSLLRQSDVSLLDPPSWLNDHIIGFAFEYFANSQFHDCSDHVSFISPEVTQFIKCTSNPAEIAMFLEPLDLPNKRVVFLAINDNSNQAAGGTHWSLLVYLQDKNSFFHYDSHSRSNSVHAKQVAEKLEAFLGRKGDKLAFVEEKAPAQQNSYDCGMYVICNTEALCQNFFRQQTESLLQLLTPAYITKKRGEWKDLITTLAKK

Caspase-3 = molecular target: T6, Caspase-3 (Homo sapiens, UniProt P42574); assay type: functional;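 further: Dose-response selectivity test against caspase-3 for candidate inhibitors of sentrin-specific proteases (SENPs)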
T6 sequence (P42574 whole entry): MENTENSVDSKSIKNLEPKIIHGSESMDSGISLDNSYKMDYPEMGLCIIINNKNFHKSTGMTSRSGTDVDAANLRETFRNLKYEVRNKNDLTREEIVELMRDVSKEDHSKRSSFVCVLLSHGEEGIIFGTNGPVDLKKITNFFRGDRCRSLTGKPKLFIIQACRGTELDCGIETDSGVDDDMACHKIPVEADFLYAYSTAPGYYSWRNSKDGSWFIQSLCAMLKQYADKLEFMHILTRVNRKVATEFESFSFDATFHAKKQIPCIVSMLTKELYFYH

[7] = microbe, parasite or virus in culture; assay type: functional; settings: Mycobacterium tuberculosis
Nonstructural protein 1 = Nonstructural protein 1 (Influenza A virus, UniProt Q194T2); assay type: functional, Influenza A virus (A/California/07/2009(H1N1))
Sequence of Nonstructural protein 1 (Q194T2 whole entry): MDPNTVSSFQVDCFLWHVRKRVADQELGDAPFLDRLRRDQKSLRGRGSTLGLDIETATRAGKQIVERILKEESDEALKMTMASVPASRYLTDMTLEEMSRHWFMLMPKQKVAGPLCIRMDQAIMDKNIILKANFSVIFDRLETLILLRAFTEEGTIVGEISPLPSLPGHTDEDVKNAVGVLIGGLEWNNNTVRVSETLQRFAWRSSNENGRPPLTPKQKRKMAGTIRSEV

For `O=C(O)Cn1cc(/C=C2/NC(=O)N(c3ccc(Cl)cc3)C2=O)c2ccccc21`, the IC50 (Leucine aminopeptidase) was 11.9 µM (active).
With `Cc1cc(C)nc(N=C(N)NC2CCCCC2)n1` the EC50 [1] was 4.22 µM (active).
In the case of `OCC1(CCc2ccccc2)CCN(Cc2cc(Cl)ccc2O)CC1`, the EC50 [1] is reported as 9.44 µM (active).
With `N#Cc1nc(COc2ccc(Br)cc2)oc1NCCCn1ccnc1` the EC50 [2] was > 50 µM (active).
In the case of `CC(C)(C)c1cc(NC(=O)c2cc(F)c(F)c(F)c2F)no1`, the IC50 (cells) is reported as 41.2 µM (active).
For `Cc1cc(Cl)ccc1OCC(=O)N/N=C/c1ccncc1`, the EC50 [2] was > 50 µM (active).
With `COc1ccc(Cn2nnnc2C(c2cc3ccc(OC)cc3nc2O)N2CCC(C)CC2)cc1` (stereo not given) the EC50 [2] was > 50 µM (active).
In the case of `CSC1=NC2(C)CCCCC2C12C=CC(=O)C=C2` (stereo not given), the EC50 [2] is reported as > 50 µM (active).
In the case of `Cc1ccccc1-n1c(C)nnc1SCc1cc(=O)oc2ccc3ccccc3c12`, the CC50 [3] is reported as > 50 µM (active) and the IC50 (cells) is reported as > 50 µM (active).
With `CN(C)C(=O)COC(=O)c1ccccc1Nc1ccc(SC(F)F)cc1` the CC50 [3] was 8.89 µM (active), the IC50 [4] was 12.8 µM (active) and the IC50 [5] was 4.9 µM (active). For the same compound, the IC50 (cells) was 4.77 µM (active), the IC50 [6] was 17.8 µM (active) and the IC50 (Caspase-3) was 28.2 µM (active).
With `COC(=O)c1cc(NC(=O)C2CC=CCC2C(=O)O)cc(C(=O)OC)c1` (stereo not given) the IC50 (Leucine aminopeptidase) was 28.6 µM (active).
For `Cc1ccc(-c2nc3c(c(=O)c4ccccc4n3C)c(=O)n2Cc2ccco2)cc1`, the IC50 (cells) was 5.74 µM (active) and the CC50 [7] was 38.3 µM (active).
In the case of `Fc1ccc(CN2CCC(Cc3ccccc3)CC2)cc1F`, the EC50 [1] is reported as 4.73 µM (active).
For `O=C1NCCCC1C(=O)N/N=C/c1cc([N+](=O)[O-])ccc1O` (stereo not given), the IC50 (Nonstructural protein 1) was 16.8 µM (active) and the EC50 [2] was > 50 µM (active).
In the case of `O=S(=O)(Nc1cccc2nsnc12)c1ccccc1`, the IC50 (Leucine aminopeptidase) is reported as 15.5 µM (active).
In the case of `O=C(CSc1nc[nH]n1)Nc1ncc(C(F)(F)F)cc1Cl`, the IC50 (Leucine aminopeptidase) is reported as 19.6 µM (active).
For `O=C(c1ccc(Cl)c(Cl)c1)N(Cc1ccco1)c1ccc(O)cc1`, the EC50 [1] was 8.41 µM (active).
